Drawing on US7541375B2, “Azole derivatives and pharmaceutical compositions containing them” (Laboratoires Serono SA, priority 2001, dated 2009), this text covers IC50 and estradiol production for one molecule.

The subject of test [1] is Colon 205 cell (ATCC CCL-222). Briefly: Colon 205 cell anti-proliferation assay. Type of test: cell-based. The settings on record: Colon 205 cells, 2×10^3 cells/well. As to the method:
(§1) Compounds of the invention were tested for anti-proliferation activity against colon tumors (Colo205, HT-29, C26 and SW660 cell lines) by procedures described in Example 40 above. 2×10^3 cells/well used.

Another test concerns the target MEK-1/ERK-2 (Homo sapiens, UniProt Q02750, S218E/S222E). Briefly: MEK-1/ERK-2 enzyme cascade assay (33P incorporation into MBP biotin). The conditions noted are these: 3 μM ATP, phosphorylation of myelin basic protein. It counts as biochemical. The method, then:
MEK-1/ERK-2 Enzyme Cascade Assay
A 50 μl mixture containing 40 nM of constitutively active MEK1EE, 160 nM of ERK2 and 10 μM MBP biotin were incubated in the presence or absence of the below compound of the invention in 1% DMSO and 1× kinase buffer containing 3 μM ATP, 50 mM Tris-HCl pH 8.0, 10 mM MgCl2, 1 mM DTT, 100 μM Na3VO4 and […] ^33P-γATP in Wallac 96 well white plates for 2 hours at room temperature. At the end of the incubation the enzyme reaction was quenched by adding 200 μl Phosphate buffered saline (PBS) solution containing 1.25 mg/ml Streptavidin SPA beads, 50 mM EDTA and 0.1% Triton 100 and incubated further for 12-14 hours at room temperature. ^33P-γATP incorporation into MBP biotin was measured using the top counts. The assay read-out is phosphorylation of myelin basic protein, which is a representative substrate of ERK-2-phos. This assay is a further confirmatory screen of the assay of Example 38 above.

The target in test [2] is MEK-1 (constitutively active MEK1EE) (Homo sapiens, UniProt Q02750, S218E/S222E). Description: MEK-1 enzyme assay (HTRF, phosphorylation of ERK2K52A). Type of test: biochemical. The settings on record: 3 μM ATP, 2 hours room temperature. The method, then:
A 50 μl mixture containing 15 nM constitutively active MEK1EE and 300 nM of ERK2K52A were incubated either in the presence or absence of the compounds of the invention in 1% DMSO and 1× kinase buffer containing 3 μM ATP, […], […], 1 mM DTT and 100 μM Na3VO4 in Wallac 96 well black plates for 2 hours at room temperature. At the end of the incubation the enzyme reaction was quenched by adding 50 μl of assay buffer containing […] Tris-HCl, 50 mM EDTA, 0.1% BSA and a mixture of 1.25 μg/ml europium labeled anti-phosphotyrosine mAb and 5 μg/ml allophycocyanin labeled (APC) anti-GST antibody. Plates were agitated on a plate shaker for 30 minutes and phosphorylation of the ERK2K52A substrate was measured by homogenous time resolved fluorescence (HTRF) at 340 nm excitation and […] emission filters on the VICTOR V fluorescence plate reader. The results are of phosphorylation of ERK-2, with inhibition occurring at the MEK-1 level. Results were as follows for the specified compounds: […]
A general note: Time-resolved FRET reads energy transfer from a long-lived donor to a nearby acceptor.

Test [3] relates to SW 660 cell (ATCC CCL-227). Briefly: SW 660 cell anti-proliferation assay. Type of test: cell-based. The settings on record: SW 660 cells, 2×10^3 cells/well. As to the method: as §1
For test [4], the system named is Pancreatic Epithelioid Carcinoma (PANC-1 cell line; ATCC CRL-1469). As to the method: (§2) Breast cancer MCF-7 cells or ovarian cancer OVCAR-3 cells were plated in 96 well Packard white plates at 4×10^3 cells/well and cultured overnight at 37° C. in 5% CO2. The below specified test compounds were serially diluted in 100% DMSO and subsequently added to cells to reach a final concentration of 0.5% DMSO. MCF-7 and OVCAR-3 (ATCC HTB-161) plates were incubated for an additional 4 to 5 days respectively at 37° C. and 5% CO2 and cell proliferation was quantitated using the ATP lite cell proliferation kit (Packard).
(§3) (R) 4-iodo-benzoic acid 1-imidazol-1-yl methyl-2-phenoxy-ethyl ester (Example No. 1) was tested for anti-proliferation activity against additional tumor cell types as specified below by procedures described in Example 39 above. American Type Culture Collection (ATCC) deposit numbers are indicated below for many of the tested cell types. Results express, as follows, the concentration of compound of the invention (μM) required to inhibit the proliferation of the tumor cells by 50 percent relative untreated controls (i.e. IC50 (μM)).

Test [5] concerns Pancreatic Carcinoma (MIA PaCa-2 cell line; ATCC CRL-1420). As to the method: as §2, §3
For test [6], the system named is Prostate Adenocarcinoma (PC-3 cell line; ATCC CRL-1435). As to the method:
as §2, §3

The subject of test [7] is Colon Adeno Carcinoma (DLD-1 cell line; ATCC CCL-221). The method, then:
as §2, §3

The test system of test [8] is Lung Carcinoma (PC-6 cell line). The method, then:
as §2, §3

For test [9], the system named is Colon Adeno Carcinoma (Grade II) (HT-29 cell line; ATCC HTB-38). The settings on record: HT-29 cell line (Example 42). The method, then: as §2, §3
Test [10] deals with Lung Carcinoma (A549 cell line; ATCC CCL-185). The method, then:
as §2, §3

Test [11] concerns Breast Ductal Carcinoma (T47D cell line; ATCC HTB-133). The method, then: as §2, §3
The test system of test [12] is Breast Adeno Carcinoma (MCF-7 cell line). The conditions noted are these: MCF-7 cell line (Example 42). As to the method:
as §2, §3

For test [13], the system named is Chronic Myelogenous Leukemia (K562 cell line; ATCC CCL-243). As to the method: as §2, §3
Test [14] relates to Malignant Melanoma (SK-MEL-5 cell line; ATCC HTB-70). The method, then:
as §2, §3

Test [15] has as its system Kidney Adeno Carcinoma (ACHN cell line; ATCC CRL-1611). As to the method: as §2, §3
Test [16] has as its system Kidney Carcinoma (A498 cell line; ATCC HTB-44). The method, then:
as §2, §3

The test system of test [17] is Promyelocytic Leukemia (HL-60 cell line; ATCC CRL-240). The method, then:
as §2, §3

Test [18] relates to Neuroepithelioma (SK-N-MC cell line; ATCC HTB-10). As to the method:
as §2, §3

Test [19] relates to Breast cancer MCF-7 cells. Briefly: MCF-7 tumor cell proliferation assay. It counts as cell-based. The settings on record: MCF-7, ATP lite cell proliferation kit.
In the next test the test system is Colon C26 cell. Description: Colon C26 cell anti-proliferation assay. Type of test: cell-based, murine. The conditions noted are these: Colon C26 cells, 2×10^3 cells/well. As to the method:
as §1

Test [20] deals with ovarian cancer OVCAR-3 cells. Briefly: OVCAR-3 tumor cell proliferation assay. The conditions noted are these: OVCAR-3, ATP lite cell proliferation kit. It counts as cell-based.
Another test relates to HT-29 cell (ATCC HTB-38). Description: HT-29 cell anti-proliferation assay. The settings on record: HT-29 cells, 2×10^3 cells/well. It counts as cell-based. The method, then:
as §1

For test [21], the system named is primary rat granulosa cell. The settings on record: compound at 10 nM to 100 nM in the presence of picomolar FSH (2 to 5 picomolar).
Procedure: Cells were plated at 5000, 8,000 and 20,000 cells/well/200 μl of GAB medium on poly-D-lysine coated 96-well tissue culture plates. Plates were incubated at 37° C. in a 5% CO/95% air incubator for 3 days. […] The compound of the invention and picomolar FSH were then added to the cultures. Cells were incubated @ 37° C. in 5% CO2. Three days later, cell supernatants were collected and diluted 1:100 in GAB medium for measurement of estradiol by RIA. The RIA was performed according to manufacturer directions except that an estradiol standard was prepared in absolute ethanol at 100 ng/ml and then further diluted in GAB medium, instead of kit buffer.

Bounds are passed on as bounds.

Sequence of MEK-1 (constitutively active MEK1EE) (Q02750 whole entry S218E/S222E, species assumed): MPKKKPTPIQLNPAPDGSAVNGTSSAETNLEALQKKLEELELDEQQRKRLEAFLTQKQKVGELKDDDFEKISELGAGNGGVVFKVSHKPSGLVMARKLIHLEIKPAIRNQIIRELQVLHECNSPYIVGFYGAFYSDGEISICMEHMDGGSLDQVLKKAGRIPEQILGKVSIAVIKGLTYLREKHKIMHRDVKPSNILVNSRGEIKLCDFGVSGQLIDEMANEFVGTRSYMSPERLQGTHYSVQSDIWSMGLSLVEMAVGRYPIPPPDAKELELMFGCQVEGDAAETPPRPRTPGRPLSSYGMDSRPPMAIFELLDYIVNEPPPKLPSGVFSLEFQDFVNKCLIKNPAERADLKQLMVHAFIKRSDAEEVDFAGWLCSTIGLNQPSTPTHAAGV
Sequence of MEK-1/ERK-2 (Q02750 whole entry S218E/S222E): as the sequence (Q02750 whole entry S218E/S222E, species assumed) above

Consider `O=C(OC(COc1ccccc1)Cn1ccnc1)c1ccc(I)cc1` (stereo not drawn) [Example 1, 4-Iodo-benzoic acid 1-imidazol-1-yl methyl-2-phenoxy-ethyl ester], for which the half-maximal inhibitory concentration (IC50) in test [1] was 1.4 µM; against MEK-1/ERK-2, 0.036 ± 0.008 µM; in test [2], 0.039 ± 0.012 µM; in test [3], 2.1 µM; in test [4], more than 100 µM; in [5] it was 3.1 µM. The IC50 in test [6] came out at 24 µM; in [7] it was 36 µM; in [8] it was 43 µM; in test [9] it was 4 µM; in [10], 25 µM; in test [11] it was 11 µM. Besides, the IC50 in test [12] is 33 µM; in test [13], 33 µM; in test [14], 11 µM; in test [15], more than 100 µM; in test [16], 54 µM; in test [17] it was 3.6 µM. In addition, the 50% inhibitory concentration (IC50) was determined as 6.7 µM in test [18]; 15 ± 7.1 µM in test [19]; 2.33 µM in the test with Colon C26 cell; 25 µM in [20]; 3.5 µM in the test on HT-29 cell (ATCC HTB-38). Moreover, in test [21], the estradiol production entry is given as “induces estradiol production”.

A word on the IC50: it is the concentration at which inhibition is half-maximal. Lower therefore signals greater potency.
